Data reported in patent publication US20230104487A1, “11-(4-CHLOROPHENYL)-4-(2,3-DIHYDRO-1H-INDOLE-1-CARBONYL)-3,11-DIMETHYL-5,10,DIOXATRICYCLO[7.4.0.0,2,6,]TRIDECA-1,3,6,8-TETRAEN-13-ONE AND DERIVATIVES AS DESTABILIZER OF CRY1 FOR THE TREATMENT OF CIRCADIAN RHYTHM ASSOCIATED DISEASES AND DISORDERS” (KOC UNIVERSITESI, priority 2019, published 2023).

Assays:
[1] = tested on: LUC; test: LUC degradation control in HEK293T; assay type: cell-based, firefly
Text: To insert Cry1-Luc, Cry2-Luc constructs and only Luc into pcDNA4A-myc-his plasmid, coding sequence of mouse Cry1 and firefly Luciferase in pG5luc plasmid (Addgene) was amplified with primers having EcoRV-NotI and NotI-XhoI flanking sites for Crys and Luc, respectively. Product size was verified by visualizing in agarose gel and product was isolated from the gel by using NucleoSpin PCR and Gel purification kit (Macherey Nagel). pcDNA4A plasmid having Luc was double digested with NotI and XhoI and used as insert; Cry1 pcDNA4A-myc-his and Cry2 pcDNA4A-myc-his plasmids were double digested with NotI and XhoI FastDigest enzymes (Thermo Scientific) and used as host plasmids. Hosts were treated with FASTAP (Thermo Scientific) to prevent self-annealing. After gel isolation and cleaning inserts with Gel purification kit (Macherey Nagel) and destination vectors were ligated by using T4 DNA ligase (Thermo Scientific).
40 ng of Cry1-Luc, Cry2-Luc, mutant Cry1-Luc plasmids or 5 ng Luc plasmid were reverse transfected to 4×10^4 HEK293T cells on opaque 96-well plate with flat bottom via PEI transfection reagent. 24 h after transfection, cells were treated with molecules or solvent (DMSO). […] Luminescence readings were recorded every 10 min at 32° C. for 24 h. Half-life of protein was calculated via one-phase exponential decay fitting function in GraphPad Prism5 software. […]

[2] = Brain tissue levels in mice; assay type: in vivo, mouse; settings: 100 mg/kg i.p.
Procedure: C57BL/6J female mice (n=4 per each time point) were treated with 100 mg/kg single dose of FORMULA I intraperitoneally. Blood samples were collected 0, 0.5, 1, 2, 4, 8, 12 and 24 h after administration of FORMULA I by cardiac puncture under isoflurane anesthesia. Plasma was obtained by centrifugation from heparinized tubes and stored at −80° C. until analysis. Brain tissues were quickly removed and stored at −80° C. for further processing. For assessment of the brain exposure of FORMULA I, levels in this tissue were only determined at 2nd (n=2) and 4th (n=2) hours according to maximum concentrations of the molecule in plasma.
Liquid chromatography coupled to tandem mass spectrometry (LC-MS/MS) was used to obtain high mass accuracy data of the analytes in plasma samples for the determination of FORMULA I and Internal standard (IS) Loratadine. […] The optimized conditions of the electrospray ionization (ESI) source were as follows: gas temperature, 300° C.; gas flow, 10 L/min; nebulizer pressure, 25 psi; capillary voltage, 5500 V. ESI in the positive ion mode provides the best results for FORMULA I. For MS-MS detection, the protonated molecules were selected as precursor ions and the most abundant fragment ions obtained at collision energy of 22-20 eV were monitored as the product ions for FORMULA I and IS. […]

[3] = target: T1, CRY1-T5 (PHR domain of CRY1) (Mus musculus, UniProt P97784); test: Pull-down assay with biotinylated molecule, CRY1-T5; assay type: binding; settings: CRY1 lacking 100 C-terminal amino acids
T1 construct: CRY1-T5 (the lack of 100 amino acids from C-terminal end); expressed in transfected cells; host or cells: HEK293T (lysate)
T1 sequence (P97784 1-506 limits assumed): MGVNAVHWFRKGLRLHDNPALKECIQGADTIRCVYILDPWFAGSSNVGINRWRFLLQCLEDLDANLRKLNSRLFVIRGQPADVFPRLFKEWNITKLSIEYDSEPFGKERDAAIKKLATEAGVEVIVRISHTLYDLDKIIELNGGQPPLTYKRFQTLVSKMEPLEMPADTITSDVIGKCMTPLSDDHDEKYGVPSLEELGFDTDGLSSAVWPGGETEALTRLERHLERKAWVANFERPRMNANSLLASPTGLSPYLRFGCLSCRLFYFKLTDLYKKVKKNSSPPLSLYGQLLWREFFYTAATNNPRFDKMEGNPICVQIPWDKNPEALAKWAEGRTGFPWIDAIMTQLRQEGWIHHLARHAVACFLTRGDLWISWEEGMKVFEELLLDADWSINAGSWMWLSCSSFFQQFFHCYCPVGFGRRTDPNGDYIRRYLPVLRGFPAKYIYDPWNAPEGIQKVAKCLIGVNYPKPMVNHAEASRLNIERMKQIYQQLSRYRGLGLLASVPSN
Procedure: 10 μg of Cry1-pcDNA4, Cry2-pcDNA4 or Cry1-T5-pcDNA4 plasmids expressing His and Myc at the C-terminal of CRYs were transfected to HEK293T cell. After 48 h of transfection cells were harvested and lysed in lysis buffer (50 mM Tris pH 7.4, 2 mM EDTA, 1 mM MgCl2, 0.2% NP-40 (v/v), 0.1% sodium deoxycholate (w/v), 1 mM sodium orthovanadate, 1 mM sodium fluoride, and protease inhibitor cocktail (Thermo Scientific)). Lysates were incubated for 10 minutes on ice then mixed gently and incubated for another 10 minutes on ice. Then lysate was centrifuged for 10 minutes at 7000 g at 4° C. 5% of the supernatant was kept for input analysis. Remaining supernatant was divided to three and mixed with 2×binding buffer (100 mM Tris-HCl pH 7.4, 300 mM NaCl, 0.2% NP-40 (v/v), 2 mM sodium orthovanadate, 2 mM sodium fluoride, and protease inhibitor) with 1:1 ratio, incubated with rotation having either of these: a) DMSO, b) biotinylated molecule, c) biotinylated molecule and the competitor for 2 h. During this period NeutrAvidin Agarose resin (Thermo Scientific) was equilibrated with lysis buffer by mixing for 5 minutes via rotation at 4° C. three times. After each mix period, resins were centrifuged at 2500 g at 4° C. for 2 minutes and supernatant was discarded. […] Pulled-down samples were analyzed via western blot.

[4] = Plasma pharmacokinetics in mice; assay type: in vivo; settings: female, C57BL/6J, mouse, ip, 100 mg/kg, single dose, i.p., read-out: AUC0-24

Cc1c(C(=O)N2CCc3ccccc32)oc2ccc3c(c12)C(=O)CC(C)(c1ccc(Cl)cc1)O3 (centres unmarked) [FORMULA I, 11-(4-chlorophenyl)-4-(2,3-dihydro-1H-indole-1-carbonyl)-3,11-dimethyl-5,10,dioxatricyclo[7.4.0.0,2,6,]trideca-1,3,6,8-tetraen-13-one]
stability of LUC [1]: no effect on the stability of LUC
blood-brain barrier crossing [2]: crosses the blood-brain barrier
detection in brain tissue ([2]; 2nd and 4th hours): detected in the brain tissue
binding to PHR domain (CRY1-T5 pull-down) [3]: bound to the PHR domain
AUC(0-t) [4]: 4920 ± 3070 ng·h/mL
